Measured values taken from publication PMC7611415 (Chembiochem : a European journal of chemical biology, 2020).

Target: T1, acetylcholine-binding protein (AcAChBP) (Aplysia californica, UniProt Q8WSF8)
T1 sequence (Q8WSF8 20-236): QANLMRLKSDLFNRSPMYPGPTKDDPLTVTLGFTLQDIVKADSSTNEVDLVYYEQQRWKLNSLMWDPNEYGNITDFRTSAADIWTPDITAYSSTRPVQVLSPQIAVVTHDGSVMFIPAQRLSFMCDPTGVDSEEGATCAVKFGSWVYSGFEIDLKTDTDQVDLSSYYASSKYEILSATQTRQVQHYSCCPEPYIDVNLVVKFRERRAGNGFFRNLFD
Assay: tryptophan fluorescence quenching

C[N+]1(C)CCc2cc3c(cc2[C@H]1[C@@H]1OC(=O)c2c1ccc1c2OCO1)OCO3 [N-methylbicuculline]
Kd: 1.2 ± 0.1 µM
